According to DBAASP:
≈ marks a conversion by molar mass, not a printed value.

Tests used:
Test in all cases: ≥ marks a high value that may be exact or a test limit, other limits are often not marked, values filed in µg/mL are converted to µM
[1] = system: Acinetobacter baumannii ATCC 17978
[2] = system: Candida albicans NCPF 1467
[3] = system: Escherichia coli NCTC 10418
[4] = system: Escherichia coli NCTC 12923
[5] = system: Klebsiella pneumoniae NCTC 13368
[6] = system: Pseudomonas aeruginosa PAO1
[7] = system: Staphylococcus aureus ATCC 9144
[8] = system: Staphylococcus aureus NCTC 10788
[9] = system: Staphylococcus aureus USA 300
[10] = system: Bacillus subtilis ATCC 6633
[11] = system: Escherichia coli ATCC 25922
[12] = system: Klebsiella pneumoniae ATCC 10031
[13] = system: Micrococcus luteus ATCC 10240
[14] = system: Pseudomonas aeruginosa ATCC 27853
[15] = system: Salmonella enterica subsp. enterica serovar Typhimurium ATCC 14028
[16] = system: Shigella dysenteriae ATCC 9752
[17] = system: Staphylococcus aureus ATCC 6538P
[18] = system: Staphylococcus epidermidis ATCC 12228
[19] = system: Batrachochytrium dendrobatidis JEL-197
Acinetobacter baumannii = system: Acinetobacter baumannii
Enterococcus faecium = system: Enterococcus faecium
Klebsiella pneumoniae = system: Klebsiella pneumoniae
Pseudomonas aeruginosa = system: Pseudomonas aeruginosa
[20] = system: Staphylococcus aureus ATCC 43300
Streptococcus pneumoniae = system: Streptococcus pneumoniae
[21] = system: Candida albicans ATCC 90028
[22] = system: Escherichia coli ATCC 25726
[23] = system: Staphylococcus aureus ATCC 25923
[24] = system: Bacillus subtilis IFO 3513
[25] = system: Escherichia coli IFO 12734
[26] = system: Staphylococcus aureus IFO 12732

`CC[C@H](C)[C@H](NC(=O)[C@H](C)NC(=O)[C@H](CCCCN)NC(=O)[C@@H]1CCCN1C(=O)[C@@H](NC(=O)[C@H](CC(C)C)NC(=O)[C@H](CO)NC(=O)[C@H](Cc1ccccc1)NC(=O)[C@H](CC(C)C)NC(=O)[C@@H](N)Cc1ccccc1)[C@@H](C)CC)C(=O)NCC(=O)NCC(=O)N[C@@H](CC(C)C)C(=O)N[C@H](C(=O)N[C@@H](CO)C(=O)N[C@@H](C)C(=O)N[C@@H](Cc1ccccc1)C(=O)N[C@@H](CCCCN)C(N)=O)[C@@H](C)CC` [FLFSLIPKAIGGLISAFK] was tested, and the MIC [1] was 4.16 µM (≈ 8 µg/mL), the MIC [2] was 5 µM (≈ 9.61 µg/mL) and the MIC [3] was 5 µM (≈ 9.61 µg/mL). The MIC [4] was 8.32 µM (≈ 16 µg/mL), the MIC [5] was ≥ 33.3 µM and the MIC [6] was > 66.6 µM. It also gave an MIC [7] of 2.08 µM (≈ 4 µg/mL), an MIC [8] of 3 µM (≈ 5.76 µg/mL) and an MIC [9] of 4.16 µM (≈ 8 µg/mL).

In the case of `CC(C)C[C@H](NC(=O)[C@H](Cc1c[nH]c2ccccc12)NC(=O)CNC(=O)[C@H](CC(C)C)NC(=O)[C@@H](N)Cc1ccccc1)C(=O)N[C@@H](Cc1ccccc1)C(=O)N[C@@H](CCCCN)C(=O)N[C@@H](Cc1c[nH]c2ccccc12)C(=O)N[C@@H](C)C(=O)N[C@@H](CO)C(=O)N[C@@H](CCCCN)C(N)=O` [FLGWLFKWASK], the MIC [10] is reported as 18.1 µM (≈ 25 µg/mL), the MIC [11] is reported as 36.2 µM (≈ 50 µg/mL) and the MIC [12] is reported as ≥ 36.2 µM. It also gave an MIC [13] of 9.04 µM (≈ 12.5 µg/mL), an MIC [14] of 145 µM (≈ 200 µg/mL) and an MIC [15] of 145 µM (≈ 200 µg/mL). It also gave an MIC [16] of 18.1 µM (≈ 25 µg/mL), an MIC [17] of 18.1 µM (≈ 25 µg/mL) and an MIC [18] of 36.2 µM (≈ 50 µg/mL).

For `CC[C@H](C)[C@@H]1NC(=O)[C@H](C)NC(=O)[C@@H](NC(=O)[C@H](Cc2ccccc2)NC(=O)[C@@H](NC(=O)[C@H](CCCCN)NC(=O)[C@@H]2CCCN2C(=O)[C@H](CC(C)C)NC(=O)[C@H](Cc2ccccc2)NC(=O)[C@H](CCC(N)=O)NC(=O)CNC(=O)[C@H](C)NC(=O)[C@H](C)NC(=O)CNC(=O)[C@@H](NC(=O)[C@@H](NC(=O)[C@H](C)NC(=O)[C@@H]2CCCN2C(=O)[C@H](CC(C)C)NC(=O)[C@@H](N)Cc2ccccc2)[C@@H](C)CC)C(C)C)[C@@H](C)CC)CSSC[C@@H](C(=O)O)NC(=O)[C@H](CCCCN)NC(=O)[C@H](CCCCN)NC(=O)[C@H](CO)NC1=O` [FLPAIVGAAGQFLPKIFCAISKKC], the MIC [19] was ≥ 40 µM and the MIC [11] was 55 µM (≈ 139 µg/mL).

For `CC[C@H](C)[C@H](NC(=O)[C@H](Cc1cnc[nH]1)NC(=O)CNC(=O)CN)C(=O)N[C@@H](CCCN=C(N)N)C(=O)N[C@@H](CCCN=C(N)N)C(=O)N[C@H](C(=O)N[C@H](C(=O)N[C@@H](CCCN=C(N)N)C(=O)N[C@@H](CCCCN)C(=O)N[C@H](C(=O)N[C@H](C(=O)N[C@@H](Cc1cnc[nH]1)C(=O)N[C@H](C(=O)N[C@H](C(=O)N[C@@H](CCCCN)C(=O)N[C@@H](CCCCN)C(N)=O)[C@@H](C)CC)[C@@H](C)CC)[C@@H](C)CC)[C@@H](C)CC)[C@@H](C)CC)[C@@H](C)CC` [GGHIRRIIRKIIHIIKK], the MIC (Acinetobacter baumannii) was 5.3 µM (≈ 10.9 µg/mL), the MIC (Enterococcus faecium) was 8 µM (≈ 16.4 µg/mL) and the MIC [11] was > 16 µM. For the same molecule, the MIC (Klebsiella pneumoniae) was 16 µM (≈ 32.8 µg/mL), the MIC (Pseudomonas aeruginosa) was > 16 µM and the MIC [20] was 16 µM (≈ 32.8 µg/mL). For the same molecule, the MIC (Streptococcus pneumoniae) was 8 µM (≈ 16.4 µg/mL).

For `CC[C@H](C)[C@H](NC(=O)CN)C(=O)N[C@@H](CCSC)C(=O)N[C@@H](CC(N)=O)C(=O)N[C@H](C(=O)N[C@H](C(=O)N[C@@H](CCCCN)C(=O)N[C@@H](CC(=O)O)C(=O)N[C@H](C(=O)N[C@@H](C)C(=O)N[C@H](C(=O)NCC(=O)N[C@H](C(=O)N[C@@H](C)C(=O)N[C@H](C(=O)N[C@@H](Cc1cnc[nH]1)C(=O)N[C@@H](CC(C)C)C(=O)N[C@@H](CC(C)C)C(=O)N[C@@H](CC(N)=O)C(=O)N[C@@H](CCSC)C(=O)N[C@H](C(=O)N[C@@H](CCCCN)C(=O)N[C@H]1CSSC[C@@H](C(=O)O)NC(=O)CNC(=O)[C@H]([C@@H](C)O)NC(=O)[C@H]([C@@H](C)CC)NC(=O)[C@H](CCCCN)NC1=O)C(C)C)[C@@H](C)O)C(C)C)[C@@H](C)O)C(C)C)C(C)C)[C@@H](C)O` [GIMNTVKDVATGVATHLLNMVKCKITGC], the MIC [19] was ≥ 100 µM, the MIC [21] was ≥ 100 µM and the MIC [22] was ≥ 50 µM. The MIC [23] was > 50 µM.

In the case of `CC[C@H](C)[C@H](N)C(=O)N[C@@H](CC(C)C)C(=O)N1CCC[C@H]1C(=O)N[C@@H](Cc1c[nH]c2ccccc12)C(=O)N[C@@H](CCCCN)C(=O)N[C@@H](Cc1c[nH]c2ccccc12)C(=O)N1CCC[C@H]1C(=O)N[C@@H](CC(C)C)C(=O)N[C@@H](Cc1c[nH]c2ccccc12)C(=O)N1CCC[C@H]1C(=O)N[C@@H](Cc1c[nH]c2ccccc12)C(=O)N[C@@H](CCCN=C(N)N)C(=O)N[C@@H](CCCN=C(N)N)C(N)=O` [ILPWKWPLWPWRR], the MIC [24] is reported as 1.71 µM (≈ 3.13 µg/mL), the MIC [25] is reported as 6.81 µM (≈ 12.5 µg/mL) and the MIC [26] is reported as 0.851 µM (≈ 1.56 µg/mL).

`CC[C@H](C)[C@H](N)C(=O)N[C@@H](CC(C)C)C(=O)N1CCC[C@H]1C(=O)N[C@@H](Cc1c[nH]c2ccccc12)C(=O)N[C@@H](CCCCN)C(=O)N[C@@H](Cc1c[nH]c2ccccc12)C(=O)N1CCC[C@H]1C(=O)N[C@@H](Cc1c[nH]c2ccccc12)C(=O)N[C@@H](CC(C)C)C(=O)N1CCC[C@H]1C(=O)N[C@@H](CCCCN)C(=O)N[C@@H](CCCN=C(N)N)C(=O)N[C@@H](CCCN=C(N)N)C(N)=O` [ILPWKWPWLPKRR] gave an MIC [24] of 1.76 µM (≈ 3.13 µg/mL), an MIC [25] of 28.2 µM (≈ 50 µg/mL) and an MIC [26] of 3.52 µM (≈ 6.25 µg/mL).

Molecule `CC[C@H](C)[C@H](N)C(=O)N[C@@H](CC(C)C)C(=O)N1CCC[C@H]1C(=O)N[C@@H](Cc1c[nH]c2ccccc12)C(=O)N[C@@H](CCCCN)C(=O)N[C@@H](Cc1c[nH]c2ccccc12)C(=O)N1CCC[C@H]1C(=O)N[C@@H](Cc1c[nH]c2ccccc12)C(=O)N[C@@H](Cc1c[nH]c2ccccc12)C(=O)N1CCC[C@H]1C(=O)N[C@@H](CC(C)C)C(=O)N[C@@H](CCCN=C(N)N)C(=O)N[C@@H](CCCN=C(N)N)C(N)=O` [ILPWKWPWWPLRR] has an MIC [24] of 1.71 µM (≈ 3.13 µg/mL), an MIC [25] of 13.6 µM (≈ 25 µg/mL) and an MIC [26] of 1.71 µM (≈ 3.13 µg/mL).

In the case of `CC(=O)N[C@@H](CCCCN)C(=O)N[C@@H](C)C(=O)N[C@@H](C)C(=O)N[C@@H](CCCCN)C(=O)N[C@@H](C)C(=O)N[C@@H](C)C(=O)N[C@@H](CCCCN)C(=O)N[C@@H](CCCCN)C(=O)N[C@@H](C)C(=O)N[C@@H](C)C(=O)N[C@@H](CCCCN)C(=O)N[C@@H](C)C(=O)N[C@@H](C)C(=O)N[C@@H](Cc1c[nH]c2ccccc12)C(=O)N[C@@H](CCCCN)C(N)=O` [KAAKAAKKAAKAAWK], the MIC [10] is reported as ≥ 130 µM, the MIC [11] is reported as 130 µM (≈ 205 µg/mL) and the MIC [12] is reported as ≥ 130 µM. The MIC [14] was 130 µM (≈ 205 µg/mL), the MIC [15] was 130 µM (≈ 205 µg/mL) and the MIC [16] was ≥ 130 µM. The MIC [17] was ≥ 130 µM and the MIC [18] was 130 µM (≈ 205 µg/mL).

`CC[C@H](C)[C@H](NC(=O)[C@H](CCCCN)NC(=O)CNC(=O)[C@H](Cc1ccccc1)NC(=O)[C@H](CC(C)C)NC(=O)[C@@H](N)CC(C)C)C(=O)N[C@H](C(=O)N[C@@H](CO)C(=O)N[C@@H](CCCN=C(N)N)C(=O)N[C@@H](CC(C)C)C(=O)N[C@@H](CC(C)C)C(=O)NCC(=O)N[C@@H](CC(N)=O)C(=O)O)[C@@H](C)CC` [LLFGKIISRLLGN] was tested, and the MIC [19] was ≥ 250 µM.
